From article PMC11802874, “The hypolipidemic effect of MI-883, the combined CAR agonist/ PXR antagonist, in diet-induced hypercholesterolemia model” (Nature Communications, 2025)
“And” between values parts separate entries of the source, which are not always exact repeats. Identical values can stand only once.

Legend:
[1] = target: T1, Human recombinant CYP2B6 (Homo sapiens, UniProt P20813); experiment: CYP450-Glo CYP2B6 enzymatic activity assay; type: biochemical; settings: for Inhibition assays, CYP2B6 activity (replicates): log[Agonist]
T1 construct: purchased Promega; host or cells: baculovirus-infected insect cells
T1 sequence (P20813 1-491): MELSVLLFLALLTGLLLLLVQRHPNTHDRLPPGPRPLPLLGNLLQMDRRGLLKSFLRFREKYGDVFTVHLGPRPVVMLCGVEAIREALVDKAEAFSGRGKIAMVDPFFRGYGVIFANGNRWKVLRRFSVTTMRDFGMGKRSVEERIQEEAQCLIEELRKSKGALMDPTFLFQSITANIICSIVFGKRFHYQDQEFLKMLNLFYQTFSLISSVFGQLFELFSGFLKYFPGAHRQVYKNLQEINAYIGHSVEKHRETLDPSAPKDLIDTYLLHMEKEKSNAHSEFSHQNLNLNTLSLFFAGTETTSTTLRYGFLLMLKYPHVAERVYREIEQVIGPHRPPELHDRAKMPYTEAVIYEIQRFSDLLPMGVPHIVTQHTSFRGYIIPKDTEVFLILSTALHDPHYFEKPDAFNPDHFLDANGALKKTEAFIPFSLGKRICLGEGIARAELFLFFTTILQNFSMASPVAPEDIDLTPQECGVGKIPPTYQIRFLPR
Excerpt: Data are presented as means±S.D. from three independent measurements.

[2] = test system: humanized PXR-CAR-CYP3A4/3A7 mice fed HFD; experiment: High-fat diet (HFD) study: weights, food intake, plasma biochemistry, histology; type: in vivo, mouse; parameters: BW (Fig 4b) / LW (Fig 4b) / LDL (Fig. 4e) / HDL (Fig. 4e) / TG (Fig. 4e) / Chol (Fig. 4e) / Glu (Fig. 4e) / food intake (Fig 4c) / AST / ALT / ALB / ALP / LDH / Urea / Uric acid / Fe / Bilirubin / CREZ / BW: unit not given here; settings: for BW: FigS12c, group mean
Description: For experiment involving a HFD in the model of diet-induced metabolic syndrome and type 2 diabetes with hypercholesterolemia, both male and female mice at the age of 10–15 weeks were pretreated for 8 weeks with HFD (E15186 EF R/M with 30% fat, ssniff ®, Soest, Germany) containing 30.1% crude fat, 20.8% protein and 171 mg/kg of cholesterol, ad libitum (Fig. 4a). Mice were then randomly assigned to MI-883 or control groups (17 male animals per group for the control or MI-883-treated group, 15 female animals per group for control and MI-883 treated groups, respectively). They were administered via oral gavage with either MI-883 treatment (5 mg/kg, 3x per week on Mo, We, Fri) or vehicle (5%DMSO/5%PEG300/90%corn oil) while still fed with HFD. Mice were sacrificed after 4 weeks of treatment.
Mice were weighted and tissues (livers, blood, duodenum, jejunum, ileum, white fat) were removed, weighted and snap frozen in liquid nitrogen and stored at –80 °C until analysis. Blood was collected from the retro-orbital sinus of mice under isoflurane anesthesia into heparin-coated tubes (Kabe Laboratortechnik GmbH, Nümbrecht-Elsenroth, Germany) after 3 h fasting and analyzed on AU480 biochemistry analyzer (Beckman Coulter, Brea, USA). Sample preparation for bile acid and cholesterol analyses from tissues or feces is described below. One of the liver lobes was fixed in formalin, embedded in paraffin blocks, sectioned, and subjected to H&E staining. Blood was analyzed as described in Supplementary, Chapter 10.
Blood was collected from the retro-orbital sinus of mice under isoflurane anesthesia into heparin-coated tubes (Kabe Laboratortechnik GmbH, Nümbrecht-Elsenroth, Germany) after 3 hours of fasting. Blood was left for 10 minutes at room temperature, and then kept on ice until centrifugation (5,000 g at 4°C for 10 minutes). The collected plasma was stored at -80 °C until measurement. Lipoprotein levels and other plasmatic parameters were measured on an AU480 biochemistry analyzer (Beckman Coulter, Brea, USA).

[3] = HFD and HCD studies (Fig. 4e, h)
[4] = HFD, MI883 HFD, individual animals
[5] = chow / vehicle / MI-883, individual animals
[6] = individual animals, MI-883 vs vehicle
[7] = normal diet, individual animals

In the case of `NC(=O)c1cc(Cn2cc(-c3c(-c4ccc(Cl)cc4)nc4cc(F)ccn34)nn2)ccc1Cl` [MI-883, 2-chloro-5-((4-(2-(4-chlorophenyl)-7-fluoroimidazo[1,2-a]pyridin-3-yl)-1H-1,2,3-triazol-1-yl)methyl)benzamide], the “inhibition of CYP2B6 activity” value [1] is reported as “does not suppress”, the “Inhibition assays, CYP2B6 activity (replicates)” value (from here on “Inhibition assays”) ([1]; M 0) is reported as 129 and 112 and 119 and the “Inhibition assays” value ([1]; M 0.5) is reported as 112. For the same molecule, the “Inhibition assays” value ([1]; M 0.5, listed as MI 883) was 104 and 118, the “Inhibition assays” value ([1]; M 1) was 114 (2×) and 110 and the “Inhibition assays” value ([1]; M -0.5) was 102 and 120 and 140. The “Inhibition assays” value ([1]; M -1) was 98, the “Inhibition assays” value ([1]; M -1, listed as MI 883) was 104 and 111 and the “Inhibition assays” value ([1]; M -2) was 100. For the same molecule, the “Inhibition assays” value ([1]; M -2.5) was 100, the “Inhibition assays” value ([1]; M -3) was 100 and the “Inhibition assays” value ([1]; M -3.5) was 100. For the same molecule, the “Inhibition assays” value ([1]; M -4) was 100, the “Inhibition assays” value ([1]; M -4.5) was 100 and the BW ([2]; time point 0) was 100. It also gave a BW ([2]; time point 3) of 99.94, a BW ([2]; time point 4) of 99.69 and a BW ([2]; time point 7) of 98.81. The BW ([2]; time point 8) was 98.7, the BW ([2]; time point 9) was 99.01 and the BW ([2]; time point 11) was 97.62. The BW ([2]; time point 14) was 97.62, the BW ([2]; time point 16) was 98.66 and the BW ([2]; time point 18) was 95.35. For the same molecule, the BW ([2]; time point 21) was 95.54, the BW ([2]; time point 25) was 95.05 and the “hepatic histology, morphology, steatosis with ballooning cells” value ([2]; H&E staining) was “did not observe affected hepatic histology, morphology, and steatosis”. For the same molecule, the “plasma HDL cholesterol concentrations in males” value ([2]; HFD and HCD studies) was “decrease”, the “plasma LDL cholesterol levels” value [2, 3] was “systematic decrease” and the “total plasma cholesterol concentration” value [2, 3] was “systematic decrease”. For the same molecule, the ALB ([2]; HFD female, individual animals) was 24.33 and 24.2 and 23.24 and 26.55 and 24.9, the ALP ([2]; HFD female, individual animals) was 113 and 92 and 67 and 82 and 103 and 98 and 123 and 110 and 111 and 88 and 70 and 60 and 74 and 94 and 83 and 97 and the ALT ([2]; HFD female, individual animals) was 22 and 33 and 42 and 31 and 44 and 26 and 25 and 20 and 30 and 27. For the same molecule, the AST ([2]; HFD female, individual animals) was 36 and 56 and 60 and 42 and 80 and 46 and 43 and 45 and 48 and 52, the Bilirubin ([2]; HFD female, individual animals) was 1.91 and 1.99 and 1.49 and 1.73 and 2.08 and 1.88 and 2.79 and 0.89 and 1.63 and 0.8 and 1.21 and 0.66 and 1.02 and 0.93 and the CREZ ([2]; HFD female, individual animals) was 8.81 and 10.944 and 9.86 and 9.877 and 9.32 and 9.613 and 6.396. For the same molecule, the Fe ([2]; HFD female, individual animals) was 19.66 and 16.34 and 16.57 and 13.12 and 20.06 and 22.23 and 20.85, the LDH ([2]; HFD female, individual animals) was 105.53 and 141.23 and 148.87 and 187.77 and 168.5 and 171.83 and 139.86 and 141.62 and 132.6 and 117.06 and 243.58 and 169.43 and 199.88 and 175.99 and 186.41 and 240.46 and 159.98 and the Urea ([2]; HFD female, individual animals) was 6.32 and 7.96 and 9.13 and 6.71 and 5.59 and 7.45 and 7.35 and 5.3. For the same molecule, the “body weight or food intake” value ([2]; HFD, 5 mg/kg 3× per week p.o., one month) was “no significant effect”, the “liver weight (LW) and liver-to-body weight (LW/BW)” value ([2]; HFD, after 1-month application) was “increase” and the ALB [2, 4] was 30.28 and 28.44 and 27.19 and 26.19 and 27.85 and 26.86 and 29.5 and 28.87 and 29.11 and 28.18 and 27.81 and 29.6 and 31.94 and 31.6 and 25.37 and 30.94. The ALP [2, 4] was 46 and 65 and 58 and 53 and 57 and 59 and 87 and 78 and 134 and 85 and 147 and 42 and 80 and 203 and 48 and 62 and 47, the ALT [2, 4] was 111 and 104 and 91 and 82 and 86 and 81 and 194 and 185 and 231 and 101 and 144 and 333 and 40 and 171 and 279 and 78 and 136 and 35 and the AST [2, 4] was 61 and 103 and 71 and 75 and 84 and 65 and 111 and 106 and 115 and 97 and 60 and 215 and 57 and 86 and 96 and 62. For the same molecule, the Bilirubin [2, 4] was 6.24 and 2.33 and 2.77 and 2.03 and 2.43 and 2.14 and 2.07 and 1.65 and 0.69 and 0.83 and 0.78 and 2.19 and 1.62 and 2.1 and 2.2 and 2.29 and 2.82 and 3.89, the CREZ [2, 4] was 6.64 and 6.515 and 6.651 and 6.864 and 6.4 and 11.788 and 9.016 and 8.705 and 10.01 and 10.479 and 10.075 and 9.458 and 9.179 and 10.214 and 7.193 and 7.711 and the Fe [2, 4] was 25.96 and 27.35 and 19.07 and 29.46 and 21.87 and 40.46 and 33.38 and 35.58 and 29.04 and 23.68 and 27.39 and 20.96 and 37.12 and 36.65 and 34.04 and 37.51 and 32.98 and 21.67 and 30.02 and 31.93. The LDH [2, 4] was 198.22 and 263.31 and 253.93 and 193.25 and 209.81 and 272.82 and 399.88 and 396.59 and 572.08 and 407.53 and 224.02 and 465.2 and 571.59 and 132.99 and 401.74 and 1012.86 and 180.55 and 261.31 and 251.38 and 204.74, the Urea [2, 4] was 8.86 and 6.88 and 6.46 and 8.34 and 10.25 and 5.64 and 6.34 and 6.16 and 6.83 and 6.9 and 7.15 and 6.75 and 6.76 and 5.98 and 5.4 and the Uric acid [2, 4] was 34.39 and 75.29 and 81.6 and 51.23 and 51.93 and 56.87 and 65.17 and 44.52 and 78.74 and 74.95 and 74.71 and 112.08 and 32.89 and 40.5 and 30.33 and 46.79 and 41.52 and 45.58 and 40.84. For the same molecule, the “food intake (Fig 4c)” value ([2]; MI-883 vs vehicle line) was 2.1 and 3.3 and 2.8 and 2.6 and 2.7, the “triglycerides and glucose concentrations in males” value ([2]; both studies) was “did not see any significant effects” and the “signs of hepatotoxicity or nephrotoxicity based on biochemical parameters” value ([2]; both studies (HFD, HCD)) was “did not observe”. For the same molecule, the “other plasma biochemical parameters” value ([2]; both studies, Supplementary Fig. 11) was “did not impact”, the “Chol (Fig. 4e)” value [2, 5] was 4.25 and 4.28 and 2.95 and 3.55 and 3.29 and 4.43 and 4.16 and 4.71 and 4.02 and 3.77 and 3.86 and 4.66 and 3.96 and 4.68 and 3.68 and the “Glu (Fig. 4e)” value [2, 5] was 10.58 and 14.95 and 11.18 and 14.52 and 13.99 and 12.86 and 13.45 and 16.77 and 19.28 and 18.71 and 17.05 and 15.9 and 14.58 and 9.64 and 14.8 and 12.42. The “HDL (Fig. 4e)” value [2, 5] was 3.307 and 3.291 and 2.143 and 2.747 and 3.405 and 3.464 and 3.127 and 2.59 and 3.382 and 3.348 and 3.749 and 3.32 and 3.251 and 2.944 and 3.197 and 2.432 and 3.457 and 2.752, the “LDL (Fig. 4e)” value [2, 5] was 0.69 and 0.66 and 0.46 and 0.49 and 0.67 and 0.52 and 0.82 and 0.7 and 1.08 and 0.75 and 0.63 and 0.85 and 1.01 and 0.81 and the “TG (Fig. 4e)” value [2, 5] was 3.307 and 3.291 and 2.143 and 2.747 and 3.405 and 3.464 and 3.127 and 2.59 and 3.382 and 3.348 and 3.749 and 3.32 and 3.251 and 2.944 and 3.197 and 2.432 and 3.457 and 2.752. For the same molecule, the “BW (Fig 4b)” value [2, 6] was 36.3 and 38.1 and 36.8 and 38.8 and 38 and 34.3 and 36.4 and 31 and 45.2 and 42 and 35.4 and 38.9 and 39.5 and 42.8 and 39.3 and 39.9 and 40 and 37 and 42.6 and 40.9 and 39.2 and 38.5, the “LW (Fig 4b)” value [2, 6] was 2.77 and 2.32 and 1.65 and 2.28 and 2.58 and 2.48 and 2.14 and 2.06 and 1.7 and 3.5 and 3.3 and 1.85 and 3.4 and 3.1 and 4.26 and 3.42 and 3.33 and 3.06 and 2.35 and 3.38 and 2.25 and 3.12 and 1.56 and the diarrhea ([2]; mouse, in vivo) was “did not observe any diarrhea”. The “Chol (Fig. 4e)” value [2, 7] was 1.85 and 1.75, the “Glu (Fig. 4e)” value [2, 7] was 12.37 and 16.62 and the “HDL (Fig. 4e)” value [2, 7] was 1.205 and 1.168. For the same molecule, the “LDL (Fig. 4e)” value [2, 7] was 0.45 and 0.42 and the “TG (Fig. 4e)” value [2, 7] was 1.205 and 1.168.
